Experiment [1] can be described thus: Geller conflict, screening for anxiolytic activity (conflict method of Geller et al, modified). The class given is in vivo. As to conditions: po; read-out: GELLER CONFLICT MED (minimum effective dose at which there was an observed increase in shocks above control). On the procedure:
Screening for anxiolytic activity was carried out by modifications of the conflict method of Geller et al [Psychopharmacologia, (1960), Vol. I, p. 482]. The values given in Table II are the minimum effective doses at which there was an observed increase in shocks above control (MED mg/kg po).

The target in the next experiment is benzodiazepine receptor. Put plainly: affinity for the benzodiazepine receptor, [3H] flunitrazepam radio receptor binding (Squires and Braestrup, modified). The note with it: inhibition by 50% of specific binding of 0.6 nM [3H] flunitrazepam to rat forebrain membrane preparations. On the procedure: The affinity of the compounds for the benzodiazepine receptor was assessed using the radioligand [^3 H] flunitrazepam and modifications of the original radio receptor binding method of Squires and Braestrup [Nature, Vol. 266 (1977) p. 732]. The values given in Table II are nanomolar concentrations of test drug which inhibited the specific binding of 0.6 nM [^3 H] flunitrazepam to rat forebrain membrane preparations by 50% (IC50 nM).

Minimal effective dose and IC50 data for eleven compounds are collected here from US4643999A, “2-substituted imidazo[1,2-c]pyrimidines having anxiolytic properties” (priority 1983, dated 1987).

pIC50: −log10 of the molar value.

As usually defined, the pIC50 is the negative decadic logarithm of the IC50, by convention in mol/L. Read a high pIC50 as a small IC50. For the compound `CCn1c(OC)cc2nc(C(=O)c3ccccc3)cn2c1=O` [Example 2, 2-benzoyl-6-ethyl-7-methoxyimidazo[1,2-c]pyrimidin-5-one], the minimal effective dose in experiment [1] was determined as 2 mg/kg. For the same compound, at benzodiazepine receptor, the pIC50 is 5.70.

Turning to `CCCn1c(OC)cc2nc(C(=O)c3ccccc3)cn2c1=O` [Example 3, 2-benzoyl-7-methoxy-6-propyl-imidazo[1,2-c]pyrimidin-5-one], in experiment [1], the minimal effective dose stood at 10 mg/kg. The same compound gave a pIC50 on benzodiazepine receptor of 6.00.

Take `COc1cc2nc(C(=O)c3ccccc3)cn2c(C)n1` [Example 4, (7-methoxy-5-methyl-imidazo[1,2-c]pyrimidin-2-yl)-phenylmethanone]: in experiment [1], the minimal effective dose was 50 mg/kg. At benzodiazepine receptor, this compound had a pIC50 of 6.28.

In the case of `CCc1nc(OC)cc2nc(C(=O)c3ccccc3)cn12` [Example 5, (5-ethyl-7-methoxy-imidazo[1,2-c]pyrimidin-2-yl)phenylmethanone], the minimal effective dose in experiment [1] amounted to 10 mg/kg. The pIC50 at benzodiazepine receptor is 6.67.

Regarding `C=CCn1c(OC)cc2nc(C(=O)c3ccccc3)cn2c1=O` [Example 9, 6-allyl-2-benzoyl-7-methoxy-imidazo[1,2-c]pyrimidin-5-one], in experiment [1], the minimal effective dose worked out at 5 mg/kg. For the same compound, the pIC50 at benzodiazepine receptor was 6.30.

Turning to `COc1cc2nc(C(=O)c3ccccc3)cn2c(OC)n1` [Example 10, (5,7-dimethoxy-imidazo[1,2-c]pyrimidin-2-yl) phenylmethanone], in experiment [1], the minimal effective dose was 10 mg/kg. The same compound showed a pIC50 at benzodiazepine receptor of 6.00.

In turn, `CCOc1nc(OC)cc2nc(C(=O)c3ccccc3)cn12` [Example 11, (5-ethoxy-7-methoxy-imidazo[1,2-c]pyrimidin-2-yl) phenylmethanone] showed a pIC50 on benzodiazepine receptor of 6.05.

For `COc1cc2nc(C(=O)c3ccccc3)cn2c(SC)n1` [Example 12, {7-methoxy-5-methylthio-imidazo[1,2-c]pyrimidin-2-yl}phenylmethanone], in experiment [1], the minimal effective dose was determined as 5 mg/kg. In addition, the pIC50 on benzodiazepine receptor was 6.90.

For the compound `CSc1cc2nc(C(=O)c3ccccc3)cn2c(SC)n1` [Example 13, {5,7-bis(methylthio)-imidazo[1,2-c]pyrimidin-2-yl}phenylmethanone], the minimal effective dose in experiment [1] stood at 50 mg/kg. In addition, on benzodiazepine receptor, the pIC50 was 7.74.

Turning to `CCn1c(SC)cc2nc(C(=O)c3ccccc3)cn2c1=O` [Example 14, 2-benzoyl-6-ethyl-7-methylthio-imidazo[1,2-c]pyrimidin-5-one], the minimal effective dose in experiment [1] amounted to 5 mg/kg. In addition, the pIC50 at benzodiazepine receptor is 6.85.

Take `C=CCn1c(SC)cc2nc(C(=O)c3ccccc3)cn2c1=O` [Example 15, 6-allyl-2-benzoyl-7-methylthio-imidazo[1,2-c]pyrimidin-5-one]: in experiment [1], the minimal effective dose was determined as 50 mg/kg. The same compound gave a pIC50 at benzodiazepine receptor of 6.92.
